Where only a bound is given, the exact number is not on record here.

Consider 25 molecules from ChEMBL document CHEMBL1221248, “Synthesis and SAR of (piperazin-1-yl-phenyl)-arylsulfonamides: a novel series of atypical antipsychotic agents” (Bioorg Med Chem Lett, 2010).

The target in assay [1] is T1, 5-hydroxytryptamine receptor 2C (Homo sapiens, UniProt P28335).
T1 sequence (P28335 whole entry): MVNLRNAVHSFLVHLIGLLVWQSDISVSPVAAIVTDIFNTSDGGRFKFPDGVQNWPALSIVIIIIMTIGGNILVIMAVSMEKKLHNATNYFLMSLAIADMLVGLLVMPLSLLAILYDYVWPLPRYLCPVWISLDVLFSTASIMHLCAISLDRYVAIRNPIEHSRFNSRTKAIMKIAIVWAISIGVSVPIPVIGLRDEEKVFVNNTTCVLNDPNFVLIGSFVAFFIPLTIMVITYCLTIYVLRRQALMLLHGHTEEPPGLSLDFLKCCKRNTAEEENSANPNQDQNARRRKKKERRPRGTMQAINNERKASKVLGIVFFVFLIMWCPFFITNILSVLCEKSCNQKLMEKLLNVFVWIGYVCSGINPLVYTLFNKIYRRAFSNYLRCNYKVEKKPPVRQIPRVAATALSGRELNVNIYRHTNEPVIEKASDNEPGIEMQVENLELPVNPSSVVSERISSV
Briefly: Displacement of [3H]mesulergine from human 5HT2C expressed in CHOKI cells. Type of assay: cell-based.

The target of assay [2] is 5-hydroxytryptamine receptor 6 (Homo sapiens, UniProt P50406). The assay can be described thus: Displacement of [3H]LSD from human 5HT6 receptor expressed in HEK293 cells. Type of assay: cell-based.
5-hydroxytryptamine receptor 6, sequence (P50406 whole entry): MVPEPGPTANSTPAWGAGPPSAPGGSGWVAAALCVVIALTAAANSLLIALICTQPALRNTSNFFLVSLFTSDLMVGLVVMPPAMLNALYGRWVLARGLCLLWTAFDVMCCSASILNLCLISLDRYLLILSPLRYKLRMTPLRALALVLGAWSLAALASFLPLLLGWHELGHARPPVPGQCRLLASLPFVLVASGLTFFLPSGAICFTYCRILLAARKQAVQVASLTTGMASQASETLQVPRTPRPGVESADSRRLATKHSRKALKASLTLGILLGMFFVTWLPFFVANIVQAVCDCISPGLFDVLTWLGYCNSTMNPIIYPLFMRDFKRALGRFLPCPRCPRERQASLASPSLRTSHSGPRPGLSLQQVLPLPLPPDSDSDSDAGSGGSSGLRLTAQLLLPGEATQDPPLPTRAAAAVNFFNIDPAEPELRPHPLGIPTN
The target in assay [3] is T2, 5-hydroxytryptamine receptor 1A (Homo sapiens, UniProt P08908).
T2 sequence (P08908 whole entry): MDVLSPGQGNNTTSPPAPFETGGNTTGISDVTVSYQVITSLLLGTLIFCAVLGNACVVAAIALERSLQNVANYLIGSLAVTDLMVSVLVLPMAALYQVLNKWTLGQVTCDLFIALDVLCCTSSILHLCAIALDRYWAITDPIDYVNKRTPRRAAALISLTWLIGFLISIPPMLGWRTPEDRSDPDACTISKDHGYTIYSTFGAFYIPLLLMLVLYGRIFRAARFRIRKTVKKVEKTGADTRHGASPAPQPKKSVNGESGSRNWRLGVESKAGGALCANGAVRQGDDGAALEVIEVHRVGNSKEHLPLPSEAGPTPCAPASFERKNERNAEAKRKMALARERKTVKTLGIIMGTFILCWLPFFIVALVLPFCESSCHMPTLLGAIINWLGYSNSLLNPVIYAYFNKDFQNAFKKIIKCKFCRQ
Briefly: Displacement of [3H]8-OH-DPAT from human 5HT1A expressed in CHOKI cells. The assay is classed as cell-based.

Assay [4] addresses 5-hydroxytryptamine receptor 2A (Homo sapiens, UniProt P28223). The assay can be described thus: Displacement of [3H]ketanserin from human 5HT2A expressed in CHOKI cells. Type of assay: cell-based.
Assay [5] addresses 5-hydroxytryptamine receptor 7 (Homo sapiens, UniProt P34969). The assay can be described thus: Displacement of [3H]LSD from human 5HT7 expressed in CHOKI cells. The assay is classed as cell-based.
In another assay the target is D(2) dopamine receptor (Homo sapiens, UniProt P14416). The assay can be described thus: Displacement of [3H]spiperone from human dopamine D2 expressed in CHOKI cells. The assay is classed as cell-based.
D(2) dopamine receptor, sequence (P14416 whole entry): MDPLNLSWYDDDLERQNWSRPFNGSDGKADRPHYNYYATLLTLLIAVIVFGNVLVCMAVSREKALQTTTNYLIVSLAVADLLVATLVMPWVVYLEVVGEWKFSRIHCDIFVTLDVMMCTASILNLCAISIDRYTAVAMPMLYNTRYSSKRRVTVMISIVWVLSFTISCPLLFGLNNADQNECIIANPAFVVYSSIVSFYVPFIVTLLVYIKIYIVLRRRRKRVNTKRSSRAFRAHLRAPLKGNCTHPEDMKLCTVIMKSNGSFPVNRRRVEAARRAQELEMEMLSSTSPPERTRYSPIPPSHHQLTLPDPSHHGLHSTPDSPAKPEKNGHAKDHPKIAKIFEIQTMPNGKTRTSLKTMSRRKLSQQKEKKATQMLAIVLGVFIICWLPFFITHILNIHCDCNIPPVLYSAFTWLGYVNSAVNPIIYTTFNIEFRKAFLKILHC
For a further assay, the target named is D(3) dopamine receptor (Homo sapiens, UniProt P35462). Briefly: Displacement of [3H]spiperone from human dopamine D3 receptor expressed in CHOKI cells. Type of assay: cell-based.
D(3) dopamine receptor, sequence (P35462 whole entry): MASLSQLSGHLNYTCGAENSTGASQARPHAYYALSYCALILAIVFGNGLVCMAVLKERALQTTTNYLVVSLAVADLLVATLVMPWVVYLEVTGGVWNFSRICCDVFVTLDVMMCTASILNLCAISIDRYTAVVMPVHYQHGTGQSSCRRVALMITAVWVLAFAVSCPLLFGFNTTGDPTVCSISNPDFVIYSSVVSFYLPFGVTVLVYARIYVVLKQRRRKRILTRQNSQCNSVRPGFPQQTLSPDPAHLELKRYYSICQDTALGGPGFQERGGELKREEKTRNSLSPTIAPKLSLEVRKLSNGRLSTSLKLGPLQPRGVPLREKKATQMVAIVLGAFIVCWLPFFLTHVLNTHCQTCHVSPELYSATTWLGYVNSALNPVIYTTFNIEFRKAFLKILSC
The next assay has as its target T3, D(4) dopamine receptor (Homo sapiens, UniProt P21917).
T3 sequence (P21917 whole entry): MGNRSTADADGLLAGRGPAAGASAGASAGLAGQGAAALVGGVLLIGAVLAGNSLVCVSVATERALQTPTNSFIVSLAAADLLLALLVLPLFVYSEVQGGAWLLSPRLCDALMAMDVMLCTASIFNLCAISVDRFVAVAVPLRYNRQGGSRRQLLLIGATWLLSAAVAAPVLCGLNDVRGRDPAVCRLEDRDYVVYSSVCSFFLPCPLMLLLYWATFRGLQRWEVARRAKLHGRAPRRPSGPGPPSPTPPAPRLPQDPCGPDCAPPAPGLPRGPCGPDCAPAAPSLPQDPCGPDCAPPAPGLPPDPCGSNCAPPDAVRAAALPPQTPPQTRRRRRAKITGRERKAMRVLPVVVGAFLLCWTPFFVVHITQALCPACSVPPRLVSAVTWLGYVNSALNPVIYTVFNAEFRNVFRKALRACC
The assay can be described thus: Displacement of [3H]spiperone from human dopamine D4 receptor expressed in CHOKI cells. The assay is classed as cell-based.

The species entered for assay [6] is Homo sapiens. Briefly: Selectivity ratio of IC50 for human 5HT1A to IC50 for human 5HT2C.
In assay [7] the target is Serotonin 2 receptors; 5-HT2a & 5-HT2c (Homo sapiens) (UniProt P28223+P28335). The assay can be described thus: Selectivity ratio of IC50 for human 5HT2A to IC50 for human 5HT2C.
Serotonin 2 receptors; 5-HT2a & 5-HT2c (Homo sapiens), sequence (P28223 whole entry, looked up, one chain of several): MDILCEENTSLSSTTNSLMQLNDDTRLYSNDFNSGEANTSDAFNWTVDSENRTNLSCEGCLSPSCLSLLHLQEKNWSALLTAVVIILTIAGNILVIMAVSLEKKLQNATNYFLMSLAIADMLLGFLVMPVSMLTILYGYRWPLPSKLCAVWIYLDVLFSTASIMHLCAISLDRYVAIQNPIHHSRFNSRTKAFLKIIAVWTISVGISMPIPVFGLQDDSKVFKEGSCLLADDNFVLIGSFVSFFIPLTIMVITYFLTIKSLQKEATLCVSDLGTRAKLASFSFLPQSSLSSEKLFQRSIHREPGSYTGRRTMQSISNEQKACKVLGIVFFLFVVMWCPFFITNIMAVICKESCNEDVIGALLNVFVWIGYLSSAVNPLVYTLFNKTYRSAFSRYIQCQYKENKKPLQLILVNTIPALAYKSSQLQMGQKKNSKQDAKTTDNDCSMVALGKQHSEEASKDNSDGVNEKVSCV
Assay [8] is filed under the species Homo sapiens. The assay can be described thus: Selectivity ratio of IC50 for human 5HT7 to IC50 for human 5HT2C.
The species named for assay [9] is Homo sapiens. The assay can be described thus: Selectivity ratio of IC50 for human dopamine D2 to IC50 for human 5HT2C.
The species named for assay [10] is Homo sapiens. The assay can be described thus: Selectivity ratio of IC50 for human dopamine D3 to IC50 for human 5HT2C.
Assay [11] is filed under the species Homo sapiens. Briefly: Selectivity ratio of IC50 for human dopamine D4 to IC50 for human 5HT2C.
The species entered for assay [12] is Homo sapiens. Briefly: Selectivity ratio of IC50 for human 5HT1A to IC50 for human 5HT6 receptor.
The species named for assay [13] is Homo sapiens. The assay can be described thus: Selectivity ratio of IC50 for human 5HT2A to IC50 for human 5HT6 receptor.
For assay [14], the species on record is Homo sapiens. The assay can be described thus: Selectivity ratio of IC50 for human 5HT7 to IC50 for human 5HT6 receptor.
The species entered for assay [15] is Homo sapiens. Briefly: Selectivity ratio of IC50 for human dopamine D2 to IC50 for human 5HT6 receptor.
Assay [16] is filed under the species Homo sapiens. Briefly: Selectivity ratio of IC50 for human dopamine D3 to IC50 for human 5HT6 receptor.
The species named for assay [17] is Homo sapiens. The assay can be described thus: Selectivity ratio of IC50 for human dopamine D4 to IC50 for human 5HT6 receptor.

5-hydroxytryptamine receptor 7, sequence (P34969 whole entry): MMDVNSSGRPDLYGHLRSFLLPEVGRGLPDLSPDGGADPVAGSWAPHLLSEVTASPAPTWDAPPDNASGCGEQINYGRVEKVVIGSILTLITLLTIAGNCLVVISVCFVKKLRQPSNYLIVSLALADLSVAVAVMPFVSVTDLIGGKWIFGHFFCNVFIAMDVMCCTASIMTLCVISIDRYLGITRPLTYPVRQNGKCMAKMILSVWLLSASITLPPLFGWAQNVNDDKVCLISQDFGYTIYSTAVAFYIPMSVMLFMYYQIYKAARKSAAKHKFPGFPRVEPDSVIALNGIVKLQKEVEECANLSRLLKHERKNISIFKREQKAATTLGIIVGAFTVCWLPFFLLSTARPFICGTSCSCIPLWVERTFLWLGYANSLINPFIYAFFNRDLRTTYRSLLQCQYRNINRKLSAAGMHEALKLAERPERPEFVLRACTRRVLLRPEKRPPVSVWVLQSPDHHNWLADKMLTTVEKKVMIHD
5-hydroxytryptamine receptor 2A, sequence (P28223 whole entry): as the sequence (P28223 whole entry, looked up, one chain of several) above

For `CC(C)N(c1cccc(N2CCN(C)CC2)c1)S(=O)(=O)c1ccc([N+](=O)[O-])cc1`, in assay [1], the IC50 came to 462 nM.

Turning to `CC(C)N(c1ccc(N2CCN(C)CC2)cc1)S(=O)(=O)c1ccc2ccccc2c1`, the results for the IC50 in assay [1] and in [2] were 1720 nM and 27 nM, respectively.

Take `CC(C)N(c1cccc(N2CCN(C)CC2)c1)S(=O)(=O)c1ccc(Cl)cc1`: in assay [1], the IC50 amounted to 243 nM.

As for `CCC(CC)N(c1cccc(N2CCN(C)CC2)c1)S(=O)(=O)c1ccc2ccccc2c1`, the IC50 in [1] is 159 nM.

The molecule `CC(C)N(C(=O)c1cccc2ccccc12)c1cccc(N2CCN(C)CC2)c1` displayed an IC50 in [1] of 97 nM.

`CC(C)N(C(=O)c1ccccc1)c1cccc(N2CCN(C)CC2)c1`: the IC50 in [1] was determined as 4160 nM.

For `CC(C)N(c1cccc(N2CCN(C)CC2)c1)S(=O)(=O)c1ccccc1`, the IC50 in [1] was 21 nM; in [2], 644 nM; in assay [3], 3400 nM; in assay [4], 172 nM; in assay [5] it was 1010 nM; at D(2) dopamine receptor it was over 10000 nM. For the same molecule, the IC50 at D(3) dopamine receptor is 2890 nM; on D(4) dopamine receptor, over 10000 nM.

`CN1CCN(c2cccc(N(CC3CCCC3)S(=O)(=O)c3ccc4ccccc4c3)c2)CC1` registered a half-inhibitory concentration (IC50) in [1] of 11 nM.

On to `CCCN(c1cccc(N2CCN(C)CC2)c1)S(=O)(=O)c1ccc2ccccc2c1`, for which the IC50 was 7 nM in assay [1]; 4 nM in [2]; 3760 nM in [3]; 389 nM in [4]; 3860 nM in assay [5]; over 10000 nM on D(2) dopamine receptor. The IC50 is 2510 nM at D(3) dopamine receptor and over 10000 nM on D(4) dopamine receptor. For the same molecule, the Ratio IC50 (in the assay filed under Homo sapiens [6]; in assay [7]; in the assay listed under Homo sapiens [8]; in the assay filed under Homo sapiens [9]; in the assay filed under Homo sapiens [10]; in the assay filed under Homo sapiens [11]) was over 25 in each case. The Ratio IC50 in the assay filed under Homo sapiens [12], in the assay filed under Homo sapiens [13], in the assay filed under Homo sapiens [14], in the assay filed under Homo sapiens [15], in the assay filed under Homo sapiens [16] and in the assay listed under Homo sapiens [17] was over 25 each time.

For the molecule `CN1CCN(c2cccc(NS(=O)(=O)c3ccc4ccccc4c3)c2)CC1`, the IC50 in assay [1] is 5150 nM; in assay [2] it was 13 nM; in assay [3], 57 nM; in [4] it was 1620 nM; in assay [5] it was 1580 nM; at D(2) dopamine receptor, over 10000 nM. The IC50 is 2100 nM on D(3) dopamine receptor and over 10000 nM at D(4) dopamine receptor.

As to `Cc1ccc(S(=O)(=O)N(c2cccc(N3CCN(C)CC3)c2)C(C)C)cc1`, the IC50 in [1] turned out to be 106 nM.

In [1], `CC(C)N(Cc1ccccc1)c1cccc(N2CCN(C)CC2)c1` yielded an IC50 of over 10000 nM.

As to `CC(C)N(c1ccccc1N1CCN(C)CC1)S(=O)(=O)c1ccc2ccccc2c1`, the IC50 amounted to 4640 nM in [1] and 2190 nM in [2].

With `CC(C)N(C(=O)c1ccc(Cl)cc1)c1cccc(N2CCN(C)CC2)c1`, in assay [1], the IC50 came to 7700 nM. That is a single-digit micromolar value.

In the case of `CN1CCN(c2cccc(N(C)S(=O)(=O)c3ccc4ccccc4c3)c2)CC1`, the IC50 in [1] was 36 nM; in assay [2] it was 7 nM; in [3] it was 95 nM; in [4] it was 1420 nM; in [5] it was 4430 nM; on D(2) dopamine receptor it was over 10000 nM. Moreover, the IC50 at D(3) dopamine receptor was 2420 nM; on D(4) dopamine receptor it was over 10000 nM.

In assay [1], `CC(C)N(C(=O)Nc1ccccc1)c1cccc(N2CCN(C)CC2)c1` yielded an IC50 of over 10000 nM.

As for `CCN(c1cccc(N2CCN(C)CC2)c1)S(=O)(=O)c1ccc2ccccc2c1`, the concentration for half-maximal inhibition (IC50) in assay [1] was 16 nM; in [2], 3 nM; in assay [3], 485 nM; in [4], 218 nM; in assay [5] it was 2060 nM; on D(2) dopamine receptor, over 10000 nM. Further, the IC50 is 1170 nM at D(3) dopamine receptor and over 10000 nM at D(4) dopamine receptor.

Turning to `CC(C)N(c1cccc(I)c1)S(=O)(=O)c1ccc2ccccc2c1`, the figures for the IC50 in assay [1] and in [2] were 467 nM and 1180 nM, respectively.

Consider `CC(C)N(c1cccc(N2CCN(C)CC2)c1)S(=O)(=O)c1cccc2ccccc12`, for which the IC50 in [1] is 100 nM; in assay [2], 16 nM; in [3] it was 298 nM; in [4], 122 nM; in [5], 2870 nM; at D(2) dopamine receptor, over 10000 nM. Also, the IC50 at D(3) dopamine receptor was 1200 nM; on D(4) dopamine receptor, over 10000 nM.

Turning to `CC(C)N(c1ccc(Oc2cccnc2)nc1)S(=O)(=O)c1ccc2ccccc2c1`, the IC50 in assay [1] was over 10000 nM; in assay [2], 422 nM.

`CCC(C)N(c1cccc(N2CCN(C)CC2)c1)S(=O)(=O)c1ccc2ccccc2c1` (configuration not stated) came in with an IC50 in assay [1] of 168 nM. This lies in the sub-micromolar range.

Turning to `CN1CCN(c2cccc(N(Cc3ccccc3)S(=O)(=O)c3ccc4ccccc4c3)c2)CC1`, the IC50 is 32 nM in [1]; 3 nM in [2]; 280 nM in assay [3]; 50 nM in [4]; 2040 nM in assay [5]; over 10000 nM on D(2) dopamine receptor. Moreover, the IC50 on D(3) dopamine receptor is 943 nM; at D(4) dopamine receptor it was over 10000 nM.

`CN1CCN(c2cccc(N(CC3CC3)S(=O)(=O)c3ccc4ccccc4c3)c2)CC1`: the IC50 in assay [1] is 6 nM; in assay [2], 6 nM; in assay [3], 672 nM; in assay [4], 88 nM; in assay [5] it was 3040 nM; on D(2) dopamine receptor it was over 10000 nM. Further, the IC50 is 1430 nM at D(3) dopamine receptor and over 10000 nM on D(4) dopamine receptor.

In assay [1], `CC(C)N(C(=O)c1ccc2ccccc2c1)c1cccc(N2CCN(C)CC2)c1` displayed an IC50 of 420 nM. This lies in the sub-micromolar range.

`CN1CCN(c2cccc(N(Cc3cccnc3)S(=O)(=O)c3ccc4ccccc4c3)c2)CC1` showed an IC50 in assay [1] of 34 nM.
